As usually defined, the IC50 is the concentration at which inhibition is half-maximal.

A value given as a limit tells only on which side of the number the result lay.

The values that follow come from patent publication US12209087B2, “AKT1 modulators” (Alterome Therapeutics, Inc., priority 2022, dated 2025).

T1 sequence (P31749 whole entry E17K): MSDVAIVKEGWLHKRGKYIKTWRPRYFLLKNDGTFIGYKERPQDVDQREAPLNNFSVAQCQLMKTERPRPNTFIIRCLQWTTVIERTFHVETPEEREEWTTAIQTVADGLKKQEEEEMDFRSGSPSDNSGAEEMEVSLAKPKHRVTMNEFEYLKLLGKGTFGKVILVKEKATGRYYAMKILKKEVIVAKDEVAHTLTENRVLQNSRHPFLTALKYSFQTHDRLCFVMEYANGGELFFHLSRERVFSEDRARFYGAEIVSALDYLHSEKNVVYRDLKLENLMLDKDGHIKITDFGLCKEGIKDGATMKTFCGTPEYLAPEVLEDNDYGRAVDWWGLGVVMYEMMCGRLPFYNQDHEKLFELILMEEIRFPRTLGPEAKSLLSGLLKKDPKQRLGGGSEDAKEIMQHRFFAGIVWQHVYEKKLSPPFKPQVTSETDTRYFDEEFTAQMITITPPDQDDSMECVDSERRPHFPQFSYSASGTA

One experiment concerns the target T1, full length AKT E17K (Homo sapiens, UniProt P31749, E17K).
T1 construct: host or cells: HEK-293 (ATCC CRL-1573)
Description: NanoBRET Target Engagement (TE) Assay. The experiment is classed as cell-based. The conditions noted are these: competitive displacement of tracer in cells, read-out: AKT1 E17K IC50. An excerpt:
The NanoBRET™ Target Engagement (TE) Intracellular Kinase Assays are based on the NanoBRET™ System (Promega Corporation), an energy transfer technique designed to measure molecular proximity in living cells. The NanoBRET™ TE Assays measure the apparent affinity of test compounds by competitive displacement of the NanoBRET™ tracer compound, which is a cell permeable molecule engineered to be reversibly bound to a NanoLuc® luciferase-kinase fusion expressed in cells. For compound screening, when a test compound binds to the selected kinase, the BRET signal is attenuated. […] All cells were evaluated for viability prior to transfection and optimization of the transfection was done prior to experimentation. […] Following transfection, cells were washed and resuspended in Opti-MEM. NanoBRET assays were performed in white, 384-well plates (Corning) at a density of […]. All example compounds were prepared as concentrated stock solutions in DMSO (Sigma-Aldrich). Compounds are dissolved in DMSO to make 10 mM stock solution. […] A Labcyte ECHO 550 compound dispenser was used to facilitate compound transfer directly to cells. Cells were equilibrated for 2 hr with energy transfer probes and example compound prior to BRET measurements. […] For target engagement analysis, the energy transfer probes were added to the cells at concentrations optimized for the target in question (AKT E17K). Following compound incubation, NanoBRET NanoGlo Substrate (Promega Cat #N157D) and Extracellular Nanoluc Inhibitor (Promega Cat #N235C) was added according to the manufacturer's recommended protocol, and luminescence was measured on Envision Reader (Perkin Elmer) Multimode Luminometer equipped with 450 nm BPfilter (donor) and 600 nm LPfilter (acceptor), using 0.5 s integration time. Milli-BRET units (mBU) are calculated by multiplying the raw BRET values by 1000. Apparent tracer affinity values (EC50) were determined using the sigmoidal dose-response (variable slope).
Competitive displacement data were then plotted and data were fit to determine the EC50 value for each example compound.
In general terms: In BRET a luciferase serves as donor, and the signal depends on an acceptor being close.
In the case of `N#Cc1nccc(NC2CCN(Cc3ccc(-n4c(-c5cccnc5N)nc5ccc(-c6ncccc6C#N)nc54)cc3)CC2)n1` [Example 408, 4-((1-(4-(2-(2-Aminopyridin-3-yl)-5-(3-cyanopyridin-2-yl)-3H-imidazo[4,5-b]pyridin-3-yl)benzyl)piperidin-4-yl)amino)pyrimidine-2-carbonitrile], the IC50 is < 0.015 µM.

In the case of `N#Cc1nccc(NC2CCN(Cc3ccc(-n4c(-c5cccnc5N)nc5ccc(-c6ccc(=O)n(C(F)F)c6)nc54)cc3)CC2)n1` [Example 617, 4-((1-(4-(2-(2-Aminopyridin-3-yl)-5-(1-(difluoromethyl)-6-oxo-1,6-dihydropyridin-3-yl)-3H-imidazo[4,5-b]pyridin-3-yl)benzyl)piperidin-4-yl)amino)pyrimidine-2-carbonitrile], the IC50 was 0.015 to 0.06 µM.

Regarding `N#Cc1ncnc(N2C[C@@H]3C[C@H]2CN3Cc2ccc(-n3c(-c4cccnc4N)nc4ccc(-c5ccccc5)nc43)cc2)n1` [Example 338, 4-((1S,4S)-5-(4-(2-(2-Aminopyridin-3-yl)-5-phenyl-3H-imidazo[4,5-b]pyridin-3-yl)benzyl)-2,5-diazabicyclo[2.2.1]heptan-2-yl)-1,3,5-triazine-2-carbonitrile], the IC50 was in the range of 0.015 to 0.06 µM.

With `N#Cc1nccc(N2CCN(Cc3ccc(-n4c(-c5cccnc5N)nc5ccc(-c6cnccc6C#N)nc54)cc3)CC2)n1` [Example 383, 4-(4-(4-(2-(2-Aminopyridin-3-yl)-5-(4-cyanopyridin-3-yl)-3H-imidazo[4,5-b]pyridin-3-yl)benzyl)piperazin-1-yl)pyrimidine-2-carbonitrile], the IC50 was < 0.015 µM.

Regarding `N#Cc1nccc(NN2CCN(Cc3ccc(-n4c(-c5cccnc5N)nc5ccc(-c6ccccc6)nc54)cc3)CC2)n1` [Example 426, 4-((4-(4-(2-(2-Aminopyridin-3-yl)-5-phenyl-3H-imidazo[4,5-b]pyridin-3-yl)benzyl)piperazin-1-yl)amino)pyrimidine-2-carbonitrile], the IC50 was < 0.015 µM.

As to `N#Cc1ncnc(N2CCN(Cc3ccc(-n4c(-c5cccnc5N)nc5ccc(-c6ccccc6)nc54)cc3)CC2)n1` [Example 328, 4-(4-(4-(2-(2-aminopyridin-3-yl)-5-phenyl-3H-imidazo[4,5-b]pyridin-3-yl)benzyl)piperazin-1-yl)-1,3,5-triazine-2-carbonitrile], the IC50 is < 0.015 µM.

Consider `CCn1ncc(-c2ccc3nc(-c4nccnc4N)n(-c4ccc(CN5CCC(Nc6ccnc(C#N)n6)CC5)cc4)c3n2)n1` [Example 629, 4-((1-(4-(2-(3-Aminopyrazin-2-yl)-5-(2-ethyl-2H-1,2,3-triazol-4-yl)-3H-imidazo[4,5-b]pyridin-3-yl)benzyl)piperidin-4-yl)amino)pyrimidine-2-carbonitrile], for which the IC50 is < 0.015 µM.

Turning to `N#Cc1nccc(N2C[C@H]3CN(Cc4ccc(-n5c(-c6cccnc6N)nc6ccc(-c7ccccc7)nc65)cc4)C[C@H]3C2)n1` [Example 339, 4-((3aR,6aS)-5-(4-(2-(2-aminopyridin-3-yl)-5-phenyl-3H-imidazo[4,5-b]pyridin-3-yl)benzyl)hexahydropyrrolo[3,4-c]pyrrol-2(1H)-yl)pyrimidine-2-carbonitrile], the IC50 lay in the range of 0.015 to 0.06 µM.

With `N#Cc1nccc(NC2CCN(Cc3ccc(-n4c(-c5cccnc5N)nc5ccc(-c6ncn(C(F)F)n6)nc54)cc3)CC2)n1` [Example 572, 4-((1-(4-(2-(2-Aminopyridin-3-yl)-5-(1-(difluoromethyl)-1H-1,2,4-triazol-3-yl)-3H-imidazo[4,5-b]pyridin-3-yl)benzyl)piperidin-4-yl)amino)pyrimidine-2-carbonitrile], the half-inhibitory concentration (IC50) was < 0.015 µM.

Take `[2H]C1(Nc2ccnc(C#N)n2)CCN(Cc2ccc(-n3c(-c4cccnc4N)nc4ccc(-c5ccc(F)cc5)nc43)cc2)CC1` [Example 451, 4-((1-(4-(2-(2-Aminopyridin-3-yl)-5-(4-fluorophenyl)-3H-imidazo[4,5-b]pyridin-3-yl)benzyl)piperidin-4-yl-4-d)amino)pyrimidine-2-carbonitrile]: the IC50 was < 0.015 µM.

In the case of `N#Cc1ccc(-c2ccc3nc(-c4cccnc4N)n(-c4ccc(CN5CCC(Nc6nccc(C#N)n6)CC5)cc4)c3n2)cc1` [Example 321, 2-((1-(4-(2-(2-Aminopyridin-3-yl)-5-(4-cyanophenyl)-3H-imidazo[4,5-b]pyridin-3-yl)benzyl)piperidin-4-yl)amino)pyrimidine-4-carbonitrile], the IC50 fell in the range of 0.06 to 0.6 µM.

As to `COc1cccc(-c2ccc3nc(-c4cccnc4N)n(-c4ccc(CN5CCC(Nc6ccnc(C#N)n6)CC5)cc4)c3n2)n1` [Example 476, 4-((1-(4-(2-(2-Aminopyridin-3-yl)-5-(6-methoxypyridin-2-yl)-3H-imidazo[4,5-b]pyridin-3-yl)benzyl)piperidin-4-yl)amino)pyrimidine-2-carbonitrile], the IC50 was < 0.015 µM.

Regarding `N#Cc1ccnc(N2CCN(Cc3ccc(-n4c(-c5cccnc5N)nc5ccc(-c6cccc(=O)[nH]6)nc54)cc3)CC2)n1` [Example 333, 2-(4-(4-(2-(2-Aminopyridin-3-yl)-5-(6-oxo-1,6-dihydropyridin-2-yl)-3H-imidazo[4,5-b]pyridin-3-yl)benzyl)piperazin-1-yl)pyrimidine-4-carbonitrile], the IC50 fell in the range of 0.015 to 0.06 µM.

For `Cc1cc(F)ccc1-c1ccc2nc(-c3cccnc3N)n(-c3ccc(CN4CCC(Nc5ccnc(C#N)n5)CC4)cc3)c2n1` [Example 523, 4-((1-(4-(2-(2-Aminopyridin-3-yl)-5-(4-fluoro-2-methylphenyl)-3H-imidazo[4,5-b]pyridin-3-yl)benzyl)piperidin-4-yl)amino)pyrimidine-2-carbonitrile], the IC50 is 0.015 to 0.06 µM.

Consider `[2H]C([2H])(c1ccc(-n2c(-c3cccnc3N)nc3ccc(Br)nc32)cc1)N1CCC(Nc2ccnc(C#N)n2)CC1` [Example 486, 4-((1-((4-(2-(2-Aminopyridin-3-yl)-5-bromo-3H-imidazo[4,5-b]pyridin-3-yl)phenyl)methyl-d2)piperidin-4-yl)amino)pyrimidine-2-carbonitrile], for which the IC50 is < 0.015 µM.

For the molecule `CCn1cc(-c2ccc3nc(-c4cccnc4N)n(-c4ccc(CN5CCC(Nc6ccnc(C#N)n6)CC5)cc4)c3n2)nn1` [Example 625, 4-((1-(4-(2-(2-Aminopyridin-3-yl)-5-(1-ethyl-1H-1,2,3-triazol-4-yl)-3H-imidazo[4,5-b]pyridin-3-yl)benzyl)piperidin-4-yl)amino)pyrimidine-2-carbonitrile], the IC50 is < 0.015 µM.

The same experiment, now with this note: competitive tracer displacement in living cells, read-out: AKT1 E17K IC50.
On to `N#Cc1cc(C(=O)N2CCN(Cc3ccc(-n4c(-c5cccnc5N)nc5ccc(-c6ccccc6)nc54)cc3)CC2)ncn1` [Example 116, 6-(4-(4-(2-(2-Aminopyridin-3-yl)-5-phenyl-3H-imidazo[4,5-b]pyridin-3-yl)benzyl)piperazine-1-carbonyl)pyrimidine-4-carbonitrile], for which the IC50 is < 0.015 µM.

On to `N#Cc1cccnc1C(=O)N1CCN(Cc2ccc(-n3c(-c4cccnc4N)nc4ccc(-c5ccccc5)nc43)cc2)CC1` [Example 146, 2-(4-(4-(2-(2-Aminopyridin-3-yl)-5-phenyl-3H-imidazo[4,5-b]pyridin-3-yl)benzyl)piperazine-1-carbonyl)nicotinonitrile], for which the IC50 lay in the range of 0.6 to 10 µM.

For `N#Cc1ncnc(NC2CC3(CCN(Cc4ccc(-n5c(-c6cccnc6N)nc6ccc(-c7ccccc7)nc65)cc4)CC3)C2)n1` [Example 248, 4-((7-(4-(2-(2-aminopyridin-3-yl)-5-phenyl-3H-imidazo[4,5-b]pyridin-3-yl)benzyl)-7-azaspiro[3.5]nonan-2-yl)amino)-1,3,5-triazine-2-carbonitrile], the IC50 is < 0.015 µM.

As for `N#Cc1nccc(C(=O)NC2CCN(Cc3ccc(-n4c(-c5cccnc5N)nc5ccc(-c6ccccc6)nc54)cc3)CC2)n1` [Example 151, N-(1-(4-(2-(2-Aminopyridin-3-yl)-5-phenyl-3H-imidazo[4,5-b]pyridin-3-yl)benzyl)piperidin-4-yl)-2-cyanopyrimidine-4-carboxamide], the IC50 is < 0.015 µM.

For the molecule `N#Cc1nccc(N2CCN(Cc3ccc(-n4c(-c5cccnc5N)nc5cccnc54)cc3)CC2)n1` [Example 18, 4-(4-(4-(2-(2-Aminopyridin-3-yl)-3H-imidazo[4,5-b]pyridin-3-yl)benzyl)piperazin-1-yl)pyrimidine-2-carbonitrile], the concentration for half-maximal inhibition (IC50) lay within 0.06 to 0.6 µM.

Turning to `N#Cc1nccnc1C(=O)N1CCN(Cc2ccc(-n3c(-c4cccnc4N)nc4cccnc43)cc2)CC1` [Example 164, 3-(4-(4-(2-(2-Aminopyridin-3-yl)-3H-imidazo[4,5-b]pyridin-3-yl)benzyl)piperazine-1-carbonyl)pyrazine-2-carbonitrile], the IC50 was in the range of 0.6 to 10 µM.

As for `N#Cc1ccc(C(=O)NC2CCN(Cc3ccc(-n4c(-c5cccnc5N)nc5ccc(-c6ccccc6)nc54)cc3)CC2)cn1` [Example 167, N-(1-(4-(2-(2-Aminopyridin-3-yl)-5-phenyl-3H-imidazo[4,5-b]pyridin-3-yl)benzyl)piperidin-4-yl)-6-cyanonicotinamide], the IC50 lay within 0.06 to 0.6 µM.
